# Data from PMC12629513 (Nature, 2024).
# Where two headings read alike, the source gives them in different places.
# Columns and labels:
# [1] = system: TX001-H5N1 wild-type; type: cell-based, A/dairy cattle/Texas/24–008749-001/2024 (H5N1)
# [2] = system: VN1203-H5N1; assay: microbe, parasite or virus in culture; type: cell-based, A/Vietnam/1203/2004 (H5N1); conditions: read-out: IC50 of polymerase inhibitor
# [3] = system: wild-type TX001-H5N1; conditions: mouse
# [4] = target: VN1203-H5N1 neuraminidase (NA) (Influenza A virus, UniProt Q6DPL2); assay: biochemical; set-up: species or system A/Vietnam/1203/2004 (H5N1)
# [5] = target: TX001-H5N1 wild-type neuraminidase (NA) (Influenza A virus, UniProt D0G890); type: biochemical, A/dairy cattle/Texas/24–008749-001/2024 (H5N1)
# [6] = read-out: IC50 of neuraminidase inhibitors
smiles,measurement,setting,value
O=C1c2c(O)c(=O)ccn2N([C@@H]2c3ccccc3SCc3c2ccc(F)c3F)[C@@H]2COCCN12 [Baloxavir acid],IC50,[1]; read-out: IC50 of polymerase inhibitor,0.61 ± 0.12 nM
same,IC50,[2],1.25 ± 0.75 nM
NC(=O)c1nc(F)c[nH]c1=O [Favipiravir],"Effectiveness in vivo (body weight, survival, virus titres)",[3]; po,highly effective
same,Effectiveness of polymerase inhibitor in vitro,[1],highly effective
same,IC50,"[2]; Influenza A virus, H5N1, MDCK, 48 h",1.65 ± 0.15 µg/mL
CO[C@@H]([C@@H]1OC(C(=O)O)=C[C@H](NC(=N)N)[C@H]1NC(C)=O)[C@H](O)CO [Laninamivir],IC50,[4],0.41 ± 0.03 nM
CCC(CC)[C@H](NC(C)=O)[C@@H]1[C@H](O)[C@@H](C(=O)O)C[C@H]1N=C(N)N [Peramivir],IC50,[4]; [6],0.24 ± 0.03 nM
same,IC50,[5]; [6],0.195 ± 0.015 nM
CC(=O)N[C@H]1[C@H]([C@H](O)[C@H](O)CO)OC(C(=O)O)=C[C@@H]1N=C(N)N [Zanamivir],Effect on body weight loss and death,[3]; in vivo,delayed body weight loss and death
same,"Effect on virus titres in lung, nasal turbinate and brain",[3]; in vivo,"significantly reduced virus titres in lung, nasal turbinate and brain"
same,Protection against lethality,[3]; in vivo,did not protect against lethality
same,Antiviral sensitivity to NA inhibitor in vitro (interpretation),[5],sensitive
COC(=O)OCOc1c2n(ccc1=O)N([C@@H]1c3ccccc3SCc3c1ccc(F)c3F)[C@@H]1COCCN1C2=O [baloxavir marboxil],"Effectiveness in vivo (body weight, survival, virus titres)",[3]; po,highly effective
same,Effectiveness of polymerase inhibitor in vitro,[1],highly effective
CCOC(=O)C1=C[C@@H](OC(CC)CC)[C@H](NC(C)=O)[C@@H](N)C1 [oseltamivir phosphate],"Protection against body weight loss, viral replication in tissues, or survival","[3]; in vivo, po",Minimal protection
